Laboratory results published in patent US7402603B2, “Cyclooxygenase-2 inhibitor/histone deacetylase inhibitor combination” (Novartis AG, priority 2001, dated 2008).

Columns and labels:
[1] = body weight change and deaths in the mouse model of adenomatous polyposis; format: in vivo; conditions: COX 125 ppm in feed ad libitum, HDAI 10 mg/kg i.v. 3x/wk for three weeks
Protocol: 5-methyl-2-(2′-chloro-6′-fluoro-anilino)-phenyl acetic acid (alternatively named [2-(2′-chloro-6′-fluoro-phenylamino)-5-methyl-phenyl]acetic acid; for the preparation see Example 1) (“COX”) and N-hydroxy-3-[4-[[(2-hydroxyethyl)[2-(1H-indol-3-yl)ethyl]-amino]methyl]phenyl]-2E-2-propenamide (alternatively named (E)-N-Hydroxy-3-[4-({(2-hydroxy-ethyl)-[2-(1H-indol-3-yl)-ethyl]-amino}-methyl)-phenyl]-acrylamide; for the preparation see Example 3) (“HDAI”) are tested as single agents and together as combination therapy in a mouse model of adenomatous polyposis for the prevention and treatment of intestinal polyps. HDAI is administered intravenously to the mice at 10 mg/kg in a 5% (w/v) dextrose in water solution, q.d., 3 times per week for three weeks. COX is administered as a dietary admixture at a concentration of 125 ppm. % T/C is the quotient of the mean number of polyps in the treated mice divided by the mean number of polyps in the control mice times 100. The following results of duplicate experiments are observed: […]

intestinal polyps = experiment: mouse model of adenomatous polyposis, prevention and treatment of intestinal polyps; format: in vivo; conditions: COX 125 ppm in feed ad libitum, HDAI 10 mg/kg i.v. 3x/wk for three weeks
Protocol: 5-methyl-2-(2′-chloro-6′-fluoro-anilino)-phenyl acetic acid (alternatively named [2-(2′-chloro-6′-fluoro-phenylamino)-5-methyl-phenyl]acetic acid; for the preparation see Example 1) (“COX”) and N-hydroxy-3-[4-[[(2-hydroxyethyl)[2-(1H-indol-3-yl)ethyl]-amino]methyl]phenyl]-2E-2-propenamide (alternatively named (E)-N-Hydroxy-3-[4-({(2-hydroxy-ethyl)-[2-(1H-indol-3-yl)-ethyl]-amino}-methyl)-phenyl]-acrylamide; for the preparation see Example 3) (“HDAI”) are tested as single agents and together as combination therapy in a mouse model of adenomatous polyposis for the prevention and treatment of intestinal polyps. HDAI is administered intravenously to the mice at 10 mg/kg in a 5% (w/v) dextrose in water solution, q.d., 3 times per week for three weeks. COX is administered as a dietary admixture at a concentration of 125 ppm. % T/C is the quotient of the mean number of polyps in the treated mice divided by the mean number of polyps in the control mice times 100. The following results of duplicate experiments are observed:
Both agents alone cause a statistically significant reduction in the number of newly formed intestinal polyps. […] Statistical evaluations are performed using a one tailed Student t-test and all p values are less than 0.01.

[2] = second of duplicate experiments

Compound	% Body Wt. Change ([1]; first of duplicate experiments)	Dead/Total animals ([1]; first of duplicate experiments)	% Body Wt. Change [1, 2]	Dead/Total animals [1, 2]	% T/C (mean number of polyps treated / control x 100) (intestinal polyps; first of duplicate experiments)	Mean Intestinal Polyp Count (# ± SEM) (intestinal polyps; first of duplicate experiments)	% T/C (mean number of polyps treated / control x 100) (intestinal polyps; [2])	Mean Intestinal Polyp Count (# ± SEM) (intestinal polyps; [2])
O=C(/C=C/c1ccc(CN(CCO)CCc2c[nH]c3ccccc23)cc1)NO [HDAI, N-hydroxy-3-[4-[[(2-hydroxyethyl)[2-(1H-indol-3-yl)ethyl]-amino]methyl]phenyl]-2E-2-propenamide]	+3.5 ± 0.1%	0/7	+9.6 ± 0.1%	0/7	52%	12 ± 0.57 #	57%	15 ± 0.3 #
Cc1ccc(Nc2c(F)cccc2Cl)c(CC(=O)O)c1 [COX, 5-methyl-2-(2′-chloro-6′-fluoro-anilino)-phenyl acetic acid]	+10 ± 0.1%	0/7	+8.1 ± 0.2%	0/7	60%	14 ± 0.7 #	46%	12 ± 0.3 #
